Assay results taken from patent publication US9708314B2, “Heterocyclic amide compound” (NISSAN CHEMICAL INDUSTRIES, LTD., priority 2013, dated 2017).

Columns and labels:
Assay type in all cases: in vivo
Cyperus difformis = experiment: Test Example 3: herbicidal effect by application to foliage (Wagner pot, water depth 0.1-0.5 cm); details: Nineteenth Table; application to foliage; application herbicide amount 320 g/ha
Method in brief: (§1)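 Post-emergence foliar application at a stated g/ha rate to plants grown 14 days from seed in alluvial soil, greenhouse 25–30 °C. Visual score after 3 weeks: 0 (≤5% effect) through 5 (≥90%).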

[1] = system: Echinochloa crus-galli var. crus-galli; experiment: as above; details: Nineteenth Table; application to foliage; application herbicide amount 320 g/ha
Method in brief: as §1

Leptochloa chinensis = experiment: as above; details: Nineteenth Table; application to foliage; application herbicide amount 320 g/ha
Method in brief: as §1

Abutilon theophrasti = experiment: Test Example 4: herbicidal effect by application to foliage (diluvial soil, plastic box); details: application to foliage; for M: herbicidal effect on Abutilon theophrasti: application herbicide amount 320 g/ha; for herbicidal effect, M (Abutilon theophrasti): 320 g/ha
Method in brief: (§2)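 Read-out is a 0–5 visual grade of herbicidal ratio (5: ≥90%, almost withered; 0: ≤5%) taken three weeks after treatment. Compound was applied as a diluted emulsion to stem and leaf parts of 14-day greenhouse-grown plants (25° C. to 30° C.) at rates expressed as g/ha.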

Alopecurus myosuroides = experiment: as above; details: application to foliage; for J: herbicidal effect on Alopecurus myosuroides: application herbicide amount 320 g/ha; for herbicidal effect, J (Alopecurus myosuroides): 320 g/ha
Method in brief: as §2

Amaranthus retroflexus = experiment: as above; details: application to foliage; for N: herbicidal effect on Amaranthus retroflexus: application herbicide amount 320 g/ha; for herbicidal effect, N (Amaranthus retroflexus): 320 g/ha
Method in brief: as §2

Apera spica-venti. = experiment: as above; details: application to foliage; for L: herbicidal effect on Apera spica-venti.: application herbicide amount 320 g/ha; for herbicidal effect, L (Apera spica-venti.): 320 g/ha
Method in brief: as §2

Avena fatua = experiment: as above; details: application to foliage; for I: herbicidal effect on Avena fatua: application herbicide amount 320 g/ha; for herbicidal effect, I (Avena fatua): 320 g/ha
Method in brief: as §2

Chenopodium album = experiment: as above; details: application to foliage; for O: herbicidal effect on Chenopodium album: application herbicide amount 320 g/ha; for herbicidal effect, O (Chenopodium album): 320 g/ha
Method in brief: as §2

Digitaria ciliaris = experiment: as above; details: application to foliage; for F: herbicidal effect on Digitaria ciliaris: application herbicide amount 320 g/ha; for herbicidal effect, F (Digitaria ciliaris): 320 g/ha
Method in brief: as §2

[2] = system: Echinochloa crus-galli var. crus-galli; experiment: as above; details: application to foliage; for H: herbicidal effect on Echinochloa crus-galli var. crus-galli: application herbicide amount 320 g/ha; for herbicidal effect, H (Echinochloa crus-galli var. crus-galli): 320 g/ha
Method in brief: as §2

Galium spurium = experiment: as above; details: application to foliage; for Q: herbicidal effect on Galium spurium: application herbicide amount 320 g/ha; for herbicidal effect, Q (Galium spurium): 320 g/ha
Method in brief: as §2

Lolium multiflorum Lam. = experiment: as above; details: application to foliage; for K: herbicidal effect on Lolium multiflorum Lam.: application herbicide amount 320 g/ha; for herbicidal effect, K (Lolium multiflorum Lam.): 320 g/ha
Method in brief: as §2

Setaria viridis = experiment: as above; details: application to foliage; for G: herbicidal effect on Setaria viridis: application herbicide amount 320 g/ha; for herbicidal effect, G (Setaria viridis): 320 g/ha
Method in brief: as §2

Stellaria media = experiment: as above; details: application to foliage; for P: herbicidal effect on Stellaria media: application herbicide amount 320 g/ha; for herbicidal effect, P (Stellaria media): 320 g/ha
Method in brief: as §2

Veronica persica = experiment: as above; details: application to foliage; for R: herbicidal effect on Veronica persica: application herbicide amount 320 g/ha; for herbicidal effect, R (Veronica persica): 320 g/ha
Method in brief: as §2

[3] = system: Beta vulgaris ssp. vulgaris; experiment: Test Example 4: effect on crop by application to foliage (diluvial soil, plastic box); details: application to foliage; for f: effect on crop, Beta vulgaris ssp. vulgaris: application herbicide amount 320 g/ha; for effect on crop, f (Beta vulgaris ssp. vulgaris): 320 g/ha
Method in brief: as §2

Brassica campestris L. = experiment: as above; details: application to foliage; for g: effect on crop, Brassica campestris L.: application herbicide amount 320 g/ha; for effect on crop, g (Brassica campestris L.): 320 g/ha
Method in brief: as §2

Glycine max = experiment: as above; details: application to foliage; for d: effect on crop, Glycine max: application herbicide amount 320 g/ha; for effect on crop, c (Glycine max): 320 g/ha
Method in brief: as §2

Triticum aestivum = experiment: as above; details: application to foliage; for e: effect on crop, Triticum aestivum: application herbicide amount 320 g/ha; for effect on crop, e (Triticum aestivum): 320 g/ha
Method in brief: as §2

Zea mays = experiment: as above; details: application to foliage; for c: effect on crop, Zea mays: application herbicide amount 320 g/ha; for effect on crop, b (Zea mays): 320 g/ha
Method in brief: as §2

[4] = system: directly sowed Oryza sativa; experiment: as above; details: application to foliage; for b: effect on crop, directly sowed Oryza sativa: application herbicide amount 320 g/ha; for effect on crop, d (directly sowed Oryza sativa): 320 g/ha
Method in brief: as §2

Row | SMILES | E (herbicidal effect grade) (Cyperus difformis) | H (herbicidal effect grade) [1] | D (herbicidal effect grade) (Leptochloa chinensis) | M: herbicidal effect on Abutilon theophrasti (Abutilon theophrasti) | J: herbicidal effect on Alopecurus myosuroides (Alopecurus myosuroides) | N: herbicidal effect on Amaranthus retroflexus (Amaranthus retroflexus) | L: herbicidal effect on Apera spica-venti. (Apera spica-venti.) | I: herbicidal effect on Avena fatua (Avena fatua) | O: herbicidal effect on Chenopodium album (Chenopodium album) | F: herbicidal effect on Digitaria ciliaris (Digitaria ciliaris) | H: herbicidal effect on Echinochloa crus-galli var. crus-galli [2] | Q: herbicidal effect on Galium spurium (Galium spurium) | K: herbicidal effect on Lolium multiflorum Lam. (Lolium multiflorum Lam.) | G: herbicidal effect on Setaria viridis (Setaria viridis) | P: herbicidal effect on Stellaria media (Stellaria media) | R: herbicidal effect on Veronica persica (Veronica persica) | f: effect on crop, Beta vulgaris ssp. vulgaris [3] | g: effect on crop, Brassica campestris L. (Brassica campestris L.) | d: effect on crop, Glycine max (Glycine max) | e: effect on crop, Triticum aestivum (Triticum aestivum) | further results
1 | Cc1nnc(NC(=O)c2ccc(C(F)(F)F)n3c(CC(F)(F)F)nnc23)o1 [1-162] | 2 (Herbicidal ratio of 20% or more and less than 40%) | 4 (Herbicidal ratio of 70% or more and less than 90%) | 4 (Herbicidal ratio of 70% or more and less than 90%) | 3 (Herbicidal ratio of 40% or more and less than 70%) | 1 (Herbicidal ratio of 5% or more and less than 20%) | 4 (Herbicidal ratio of 70% or more and less than 90%) | 0 (Herbicidal ratio of 5% or less (almost no effect)) | 1 (Herbicidal ratio of 5% or more and less than 20%) | 4 (Herbicidal ratio of 70% or more and less than 90%) | 3 (Herbicidal ratio of 40% or more and less than 70%) | 4 (Herbicidal ratio of 70% or more and less than 90%) | 2 (Herbicidal ratio of 20% or more and less than 40%) | 1 (Herbicidal ratio of 5% or more and less than 20%) | 1 (Herbicidal ratio of 5% or more and less than 20%) | 3 (Herbicidal ratio of 40% or more and less than 70%) | 3 (Herbicidal ratio of 40% or more and less than 70%) | 3 (Herbicidal ratio of 40% or more and less than 70%) | 1 (Herbicidal ratio of 5% or more and less than 20%) | 3 (Herbicidal ratio of 40% or more and less than 70%) | 0 (Herbicidal ratio of 5% or less (almost no effect)) | c: effect on crop, Zea mays (Zea mays): 0 (Herbicidal ratio of 5% or less (almost no effect)); b: effect on crop, directly sowed Oryza sativa [4]: 0 (Herbicidal ratio of 5% or less (almost no effect))
2 | C#CCN(C)c1nnc2c(C(=O)Nc3nnco3)ccc(C(F)(F)F)n12 [1-163] | 4 (Herbicidal ratio of 70% or more and less than 90%) | 5 (Herbicidal ratio of 90% or more (almost completely withered)) | 5 (Herbicidal ratio of 90% or more (almost completely withered)) | 4 (Herbicidal ratio of 70% or more and less than 90%) | 1 (Herbicidal ratio of 5% or more and less than 20%) | 4 (Herbicidal ratio of 70% or more and less than 90%) | 1 (Herbicidal ratio of 5% or more and less than 20%) | 2 (Herbicidal ratio of 20% or more and less than 40%) | 5 (Herbicidal ratio of 90% or more (almost completely withered)) | 4 (Herbicidal ratio of 70% or more and less than 90%) | 5 (Herbicidal ratio of 90% or more (almost completely withered)) | 3 (Herbicidal ratio of 40% or more and less than 70%) | 1 (Herbicidal ratio of 5% or more and less than 20%) | 3 (Herbicidal ratio of 40% or more and less than 70%) | 4 (Herbicidal ratio of 70% or more and less than 90%) | 2 (Herbicidal ratio of 20% or more and less than 40%) | 4 (Herbicidal ratio of 70% or more and less than 90%) | 3 (Herbicidal ratio of 40% or more and less than 70%) | 4 (Herbicidal ratio of 70% or more and less than 90%) | 1 (Herbicidal ratio of 5% or more and less than 20%) | c: effect on crop, Zea mays (Zea mays): 0 (Herbicidal ratio of 5% or less (almost no effect)); b: effect on crop, directly sowed Oryza sativa [4]: 0 (Herbicidal ratio of 5% or less (almost no effect))
3 | Cn1nnnc1NC(=O)c1ccc(C(F)(F)F)n2c(SC3CCCC3)nnc12 [2-096] | 5 (Herbicidal ratio of 90% or more (almost completely withered)) | 0 (Herbicidal ratio of 5% or less (almost no effect)) | 0 (Herbicidal ratio of 5% or less (almost no effect)) | – | – | – | – | – | – | – | – | – | – | – | – | – | – | – | – | – | herbicidal effect, M (Abutilon theophrasti) (Abutilon theophrasti): 5 (Herbicidal ratio of 90% or more (almost completely withered)); herbicidal effect, J (Alopecurus myosuroides) (Alopecurus myosuroides): 0 (Herbicidal ratio of 5% or less (almost no effect)); herbicidal effect, N (Amaranthus retroflexus) (Amaranthus retroflexus): 5 (Herbicidal ratio of 90% or more (almost completely withered)); herbicidal effect, L (Apera spica-venti.) (Apera spica-venti.): 0 (Herbicidal ratio of 5% or less (almost no effect)); herbicidal effect, I (Avena fatua) (Avena fatua): 1 (Herbicidal ratio of 5% or more and less than 20%); herbicidal effect, O (Chenopodium album) (Chenopodium album): 5 (Herbicidal ratio of 90% or more (almost completely withered)); herbicidal effect, F (Digitaria ciliaris) (Digitaria ciliaris): 5 (Herbicidal ratio of 90% or more (almost completely withered)); herbicidal effect, H (Echinochloa crus-galli var. crus-galli) [2]: 5 (Herbicidal ratio of 90% or more (almost completely withered)); herbicidal effect, Q (Galium spurium) (Galium spurium): 3 (Herbicidal ratio of 40% or more and less than 70%); herbicidal effect, K (Lolium multiflorum Lam.) (Lolium multiflorum Lam.): 0 (Herbicidal ratio of 5% or less (almost no effect)); herbicidal effect, G (Setaria viridis) (Setaria viridis): 4 (Herbicidal ratio of 70% or more and less than 90%); herbicidal effect, P (Stellaria media) (Stellaria media): 4 (Herbicidal ratio of 70% or more and less than 90%); herbicidal effect, R (Veronica persica) (Veronica persica): 3 (Herbicidal ratio of 40% or more and less than 70%); effect on crop, f (Beta vulgaris ssp. vulgaris) [3]: 5 (Herbicidal ratio of 90% or more (almost completely withered)); effect on crop, g (Brassica campestris L.) (Brassica campestris L.): 0 (Herbicidal ratio of 5% or less (almost no effect)); effect on crop, c (Glycine max) (Glycine max): 0 (Herbicidal ratio of 5% or less (almost no effect)); effect on crop, e (Triticum aestivum) (Triticum aestivum): 0 (Herbicidal ratio of 5% or less (almost no effect)); effect on crop, b (Zea mays) (Zea mays): 0 (Herbicidal ratio of 5% or less (almost no effect)); effect on crop, d (directly sowed Oryza sativa) [4]: 3 (Herbicidal ratio of 40% or more and less than 70%)
4 | Cn1nnnc1NC(=O)c1ccc(C(F)(F)F)n2c(SCc3ccc(Cl)nc3)nnc12 [2-097] | 4 (Herbicidal ratio of 70% or more and less than 90%) | 2 (Herbicidal ratio of 20% or more and less than 40%) | 3 (Herbicidal ratio of 40% or more and less than 70%) | – | – | – | – | – | – | – | – | – | – | – | – | – | – | – | – | – | herbicidal effect, M (Abutilon theophrasti) (Abutilon theophrasti): 3 (Herbicidal ratio of 40% or more and less than 70%); herbicidal effect, J (Alopecurus myosuroides) (Alopecurus myosuroides): 1 (Herbicidal ratio of 5% or more and less than 20%); herbicidal effect, N (Amaranthus retroflexus) (Amaranthus retroflexus): 3 (Herbicidal ratio of 40% or more and less than 70%); herbicidal effect, L (Apera spica-venti.) (Apera spica-venti.): 2 (Herbicidal ratio of 20% or more and less than 40%); herbicidal effect, I (Avena fatua) (Avena fatua): 2 (Herbicidal ratio of 20% or more and less than 40%); herbicidal effect, O (Chenopodium album) (Chenopodium album): 5 (Herbicidal ratio of 90% or more (almost completely withered)); herbicidal effect, F (Digitaria ciliaris) (Digitaria ciliaris): 4 (Herbicidal ratio of 70% or more and less than 90%); herbicidal effect, H (Echinochloa crus-galli var. crus-galli) [2]: 5 (Herbicidal ratio of 90% or more (almost completely withered)); herbicidal effect, Q (Galium spurium) (Galium spurium): 3 (Herbicidal ratio of 40% or more and less than 70%); herbicidal effect, K (Lolium multiflorum Lam.) (Lolium multiflorum Lam.): 1 (Herbicidal ratio of 5% or more and less than 20%); herbicidal effect, G (Setaria viridis) (Setaria viridis): 3 (Herbicidal ratio of 40% or more and less than 70%); herbicidal effect, P (Stellaria media) (Stellaria media): 4 (Herbicidal ratio of 70% or more and less than 90%); herbicidal effect, R (Veronica persica) (Veronica persica): 4 (Herbicidal ratio of 70% or more and less than 90%); effect on crop, f (Beta vulgaris ssp. vulgaris) [3]: 4 (Herbicidal ratio of 70% or more and less than 90%); effect on crop, g (Brassica campestris L.) (Brassica campestris L.): 1 (Herbicidal ratio of 5% or more and less than 20%); effect on crop, c (Glycine max) (Glycine max): 0 (Herbicidal ratio of 5% or less (almost no effect)); effect on crop, e (Triticum aestivum) (Triticum aestivum): 0 (Herbicidal ratio of 5% or less (almost no effect)); effect on crop, b (Zea mays) (Zea mays): 0 (Herbicidal ratio of 5% or less (almost no effect)); effect on crop, d (directly sowed Oryza sativa) [4]: 3 (Herbicidal ratio of 40% or more and less than 70%)
